Results published in US9695155B2, “Herbicidal substituted pyrimidinyloxy benzene compounds” (E. I. DU PONT DE NEMOURS AND COMPANY, priority 2013, dated 2017).

Legend:
[1] = test system: barnyardgrass; assay: Test A preemergence; assay type: in vivo, Echinochloa crus-galli
How it was run: (§1)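 Injury scores run from 0, no effect, to 100, complete control, judged by eye against untreated plants roughly 10 days after treatment. Chemicals carried a surfactant in a non-phytotoxic solvent and went onto loam–sand soil preemergence or onto one- to two-leaf seedlings postemergence.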

[2] = test system: giant foxtail; assay: Test A preemergence; assay type: in vivo, Setaria faberii; conditions: for Foxtail, Giant plant response rating: 0 to 100 scale, 0 no effect, 100 complete control, approx. 10 days
How it was run: as §1

[3] = test system: rice; assay: Test B flooded paddy test; assay type: in vivo, Oryza sativa; conditions: Flood, 250 g ai/ha; 0 to 100 scale where 0 is no effect and 100 is complete control
How it was run: (§2)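 2-leaf stage plants; pots flooded to 3 cm, compound added to paddy water, depth maintained. Greenhouse 13–15 d. Visual rating vs untreated controls, 0 (no effect) to 100 (complete control); dash = no result.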

[4] = test system: sedge, umbrella; assay: Test B flooded paddy test; assay type: in vivo, Cyperus difformis; conditions: Flood, 250 g ai/ha; 0 to 100 scale where 0 is no effect and 100 is complete control
How it was run: as §2

[5] = test system: Heteranthera limosa; assay: Test B flooded paddy test; assay type: in vivo; conditions: Flood, 250 g ai/ha; 0 to 100 scale where 0 is no effect and 100 is complete control
How it was run: as §2

[6] = test system: barnyardgrass; assay: Test B flooded paddy test; assay type: in vivo, Echinochloa crus-galli; conditions: Flood, 250 g ai/ha; 0 to 100 scale where 0 is no effect and 100 is complete control
How it was run: as §2

[7] = test system: wheat, winter; assay: Test C postemergence; assay type: in vivo, Triticum aestivum; conditions: for Plant response rating, Wheat: scale 0 to 100 (0 no effect, 100 complete control)
Source text: (§3) Seeds of plant species selected from blackgrass (Alopecurus myosuroides), Italian ryegrass (Lolium multiflorum), wheat, winter (winter wheat, Triticum aestivum), galium (catchweed bedstraw, Galium aparine), corn (Zea mays), large (Lg) crabgrass (Digitaria sanguinalis), giant foxtail (Setaria faberii), johnsongrass (Sorghum halepense), lambsquarters (Chenopodium album), morningglory (Ipomoea coccinea), yellow nutsedge (Cyperus esculentus), pigweed (Amaranthus retroflexus), ragweed (common ragweed, Ambrosia elatior), soybean (Glycine max), barnyardgrass (Echinochloa crus-galli), oilseed rape (Brassica napus), waterhemp (common waterhemp, Amaranthus rudis), kochia (Kochia scoparia), wild oat (Avena fatua), surinam grass (Brachiaria decumbens), foxtail, green (green foxtail, Setaria viridis), goosegrass (Eleusine indica), bromegrass, downy (downy bromegrass, Bromus tectorum), nightshade (eastern black nightshade, Solanum ptycanthum), cocklebur (common cocklebur, Xanthium strumarium), cupgrass, woolly (woolly cupgrass, Eriochloa villosa), bermudagrass (Cynodon dactylon), sunflower, (common oilseed sunflower, Helianthus annuus), Russian thistle (Salsola kali), and velvetleaf (Abutilon theophrasti) were planted into a blend of loam soil and sand and treated preemergence with test chemicals formulated in a non-phytotoxic solvent mixture which included a surfactant.
(§4) At the same time, plants selected from these crop and weed species and also barley, winter (winter barley, Hordeum vulgare), windgrass (Apera spica-venti), chickweed (common chickweed, Stellaria media), deadnettle (henbit deadnettle, Lamium amplexicaule), and canarygrass (littleseed canarygrass, Phalaris minor) were planted in pots containing Redi-Earth® planting medium (Scotts Company, 14111 Scottslawn Road, Marysville, Ohio 43041) comprising spaghnum peat moss, vermiculite, wetting agent and starter nutrients and treated with postemergence applications of test chemicals formulated in the same manner. Plants ranged in height from 2 to 18 cm (1- to 4-leaf stage) for postemergence treatments. Treated plants and controls were maintained in a greenhouse for 13 to 15 days, after which time all species were compared to controls and visually evaluated. Plant response ratings, summarized in Table C, are based on a scale of 0 to 100 where 0 is no effect and 100 is complete control. A dash (-) response means no test result.

[8] = test system: galium; assay: Test C postemergence; assay type: in vivo, Galium aparine
How it was run: (§5)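 Visual injury score versus untreated controls, 0 = no effect, 100 = complete control, taken 13 to 15 days after treatment in the greenhouse. Pre-emergence pots held loam/sand; post-emergence plants grew in sphagnum peat/vermiculite mix and were sprayed at the 1- to 4-leaf stage.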

[9] = test system: lambsquarters; assay: Test C postemergence; assay type: in vivo, Chenopodium album; conditions: for Plant response rating, Lambsquarters: scale 0 to 100 (0 no effect, 100 complete control)
How it was run: as §5

[10] = test system: morningglory; assay: Test C postemergence; assay type: in vivo, Ipomoea coccinea; conditions: for Plant response rating, Morningglory: scale 0 to 100 (0 no effect, 100 complete control)
Source text: as §3, §4

[11] = test system: yellow nutsedge; assay: Test C postemergence; assay type: in vivo, Cyperus esculentus; conditions: for Plant response rating, Nutsedge, Yellow: scale 0 to 100 (0 no effect, 100 complete control)
How it was run: as §5

[12] = test system: ragweed; assay: Test C postemergence; assay type: in vivo, Ambrosia elatior; conditions: for Plant response rating, Ragweed: scale 0 to 100 (0 no effect, 100 complete control)
Source text: as §3, §4

[13] = test system: velvetleaf; assay: Test C postemergence; assay type: in vivo, Abutilon theophrasti; conditions: for Plant response rating, Velvetleaf: scale 0 to 100 (0 no effect, 100 complete control)
How it was run: as §5

[14] = test system: chickweed; assay: Test C postemergence; assay type: in vivo, Stellaria media
How it was run: as §5

[15] = 125 g ai/ha, 0 to 100 scale where 0 is no effect and 100 is complete control
[16] = Postemergence, 31 g ai/ha, 13 to 15 days
[17] = 16 g ai/ha, postemergence, visual rating, scale 0 to 100 (0 no effect, 100 complete control), 13 to 15 days
[18] = Postemergence, 31 g ai/ha, scale 0 to 100 (0 no effect, 100 complete control), 13 to 15 days
[19] = Postemergence, 62 g ai/ha, scale 0 to 100 (0 no effect, 100 complete control)
[20] = 16 g ai/ha, postemergence, 0 is no effect, 100 is complete control
[21] = 125 g ai/ha, postemergence, visual rating
[22] = 125 g ai/ha, postemergence, visual rating, scale 0 to 100 (0 no effect, 100 complete control)

## CC(C)c1cnn(-c2c(C#N)cccc2Oc2ncc(Cl)cn2)c1 [Compound 85]
[1]; [15]
  Plant response rating, Barnyardgrass: 20
[1]; 500 g ai/ha, 0 to 100 scale, 0 no effect, 100 complete control, approx. 10 days
  Barnyardgrass plant response rating: 100
[2]; [15]
  Plant response rating, Foxtail, Giant: 100
[2]; 500 g ai/ha
  Foxtail, Giant plant response rating: 100
[3]
  Plant response rating, Rice: 10
[4]
  Plant response rating, Sedge, Umbrella: 30
[5]
  Plant response rating, Ducksalad: 30
[6]
  Plant response rating, Barnyardgrass: 0
[7]; 125 g ai/ha, postemergence
  Plant response rating (0 to 100), Wheat: 0
[7]; [16]
  Plant response rating, Wheat: 0
[7]; Postemergence, 62 g ai/ha
  Plant response rating, Wheat: 5
[8]; [17]
  Galium plant response rating: 40
[8]; 125 g ai/ha, postemergence
  Plant response rating (0 to 100), Galium: 75
[8]; [18]
  Plant response rating, Galium: 50
[8]; [19]
  Plant response rating, Galium: 50
[9]; 125 g ai/ha, postemergence
  Plant response rating (0 to 100), Lambsquarters: 70
[9]; [16]
  Plant response rating, Lambsquarters: 55
[9]; Postemergence, 62 g ai/ha
  Plant response rating, Lambsquarters: 75
[10]; 125 g ai/ha, postemergence
  Plant response rating (0 to 100), Morningglory: 40
[10]; [16]
  Plant response rating, Morningglory: 60
[10]; Postemergence, 62 g ai/ha
  Plant response rating, Morningglory: 25
[11]; 125 g ai/ha, postemergence
  Plant response rating (0 to 100), Nutsedge, Yellow: 10
[11]; [16]
  Plant response rating, Nutsedge, Yellow: 5
[11]; Postemergence, 62 g ai/ha
  Plant response rating, Nutsedge, Yellow: 5
[12]; 125 g ai/ha, postemergence
  Plant response rating (0 to 100), Ragweed: 65
[12]; [16]
  Plant response rating, Ragweed: 20
[12]; Postemergence, 62 g ai/ha
  Plant response rating, Ragweed: 20
[13]; 125 g ai/ha, postemergence
  Plant response rating (0 to 100), Velvetleaf: 55
[13]; [16]
  Plant response rating, Velvetleaf: 45
[13]; Postemergence, 62 g ai/ha
  Plant response rating, Velvetleaf: 45
[14]; [17]
  Chickweed plant response rating: 5
[14]; 125 g ai/ha, postemergence
  Plant response rating (0 to 100), Chickweed: 40
[14]; [18]
  Plant response rating, Chickweed: 40
[14]; [19]
  Plant response rating, Chickweed: 50

## FCc1cn(-c2ccccc2Oc2ncc(Cl)cn2)nn1 [Compound 123]
[1]; 1000 g ai/ha, 0 to 100 scale, 0 no effect, 100 complete control
  Plant response rating, Barnyardgrass: 100
[2]; 1000 g ai/ha
  Foxtail, Giant plant response rating: 100
[3]
  Plant response rating, Rice: 0
[4]
  Plant response rating, Sedge, Umbrella: 40
[5]
  Plant response rating, Ducksalad: 80
[6]
  Plant response rating, Barnyardgrass: 35
[7]; [20]
  Plant response rating (0 to 100), Wheat: 0
[7]; [21]
  Plant response rating, Wheat: 5
[7]; Postemergence, 62 g ai/ha
  Plant response rating, Wheat: 0
[8]; [20]
  Plant response rating (0 to 100), Galium: 40
[8]; [22]
  Plant response rating, Galium: 90
[8]; [19]
  Plant response rating, Galium: 85
[9]; [20]
  Plant response rating (0 to 100), Lambsquarters: 60
[9]; [21]
  Plant response rating, Lambsquarters: 85
[9]; Postemergence, 62 g ai/ha
  Plant response rating, Lambsquarters: 85
[10]; [20]
  Plant response rating (0 to 100), Morningglory: 5
[10]; [21]
  Plant response rating, Morningglory: 75
[10]; Postemergence, 62 g ai/ha
  Plant response rating, Morningglory: 55
[11]; [20]
  Plant response rating (0 to 100), Nutsedge, Yellow: 5
[11]; [21]
  Plant response rating, Nutsedge, Yellow: 10
[11]; Postemergence, 62 g ai/ha
  Plant response rating, Nutsedge, Yellow: 10
[12]; [20]
  Plant response rating (0 to 100), Ragweed: 35
[12]; [21]
  Plant response rating, Ragweed: 75
[12]; Postemergence, 62 g ai/ha
  Plant response rating, Ragweed: 70
[13]; [20]
  Plant response rating (0 to 100), Velvetleaf: 60
[13]; [21]
  Plant response rating, Velvetleaf: 100
[13]; Postemergence, 62 g ai/ha
  Plant response rating, Velvetleaf: 80
[14]; [20]
  Plant response rating (0 to 100), Chickweed: 5
[14]; [22]
  Plant response rating, Chickweed: 60
[14]; [19]
  Plant response rating, Chickweed: 50
